# Laboratory results: patent US20230110998A1, “Compositions and Methods for Treatment of Cytokine Storm and Cytokine Release Syndrome” (Yinuoke Medicine Science Technology Company Ltd., priority 2020, published 2023)
# Legend:
# IL-6 = test: Serum IL-6 levels in LPS-induced CRS; type: in vivo, BALB/c mice; conditions: 50 µg LPS i.p.; 10 mg/kg single i.p. injection; serum 2 hours after challenge; versus PBS, p=0.0023
# Experimental: 8-week-old male BALB/c mice were used for these studies. The mice were challenged with 50 µg LPS (Sigma Cat. No. L2630) dissolved in 0.1 mL PBS, a dosage designed to ensure all animals survived the challenge, via intraperitoneal injection. Mouse serum was collected 2 hours after the challenge, and IL-6 was measured with the Mouse Il-6 Flex Set (BD Biosciences Cat. No. 558301).
# Within 2 minutes of the LPS injection, test compound ketorolac (racemic mixture) or control vehicle (PBS) was administered at 10 mg per kg body weight by single intraperitoneal injection. 5 mice were included per experimental group.
# LPS-induced CRS [1] = test: Acute diarrhea caused by high-dose LPS-induced CRS; type: in vivo, BALB/c mice; conditions: LPS 15 mg/kg i.p.
# Experimental: 8-10-week-old female BALB/c mice were used for these studies. The mice were challenged with LPS at 15 mg per kg body weight, a dosage which had been empirically determined to induce diarrhea in 100% of tested subjects, via intraperitoneal injection. The mice were monitored for diarrhea symptoms, with diarrhea defined by the presence of watery stools 6 hours after treatment. Within 2 minutes of the LPS injection, test compound ketorolac (racemic mixture, suspended in PBS) or control vehicle (PBS) was administered at 0.1 mg (corresponding to 5 mg/kg) by single intraperitoneal injection.
# LPS-induced CRS [2] = test: Survival of mice with LPS-induced CRS; type: in vivo, BALB/c mice; conditions: 0.2 mg LPS i.p.
# Experimental: 8-week-old female BALB/c mice were used for these studies. […] The mice were challenged with 0.2 mg LPS (Sigma Cat. No. L2630) dissolved in 0.1 mL PBS via intraperitoneal injection. The mice were monitored for health condition and survival for a minimum of seven days. […]
# LPS-induced CRS [3] = test: Body weight loss caused by low-dose LPS-induced CRS; type: in vivo, BALB/c mice; conditions: 0.05 mg LPS i.p.; 0.3 mg (15 mg/kg) oral; next day; compared with aspirin, p=0.0267
# Experimental: 8-week-old female BALB/c mice were used for these studies. The mice were challenged with 0.05 mg LPS (Sigma Cat. No. L2630) via intraperitoneal injection. Body weight was measured before LPS challenge and the next day after the challenge.
# Within 2 minutes of LPS injection, test compound (R)-ketorolac (0.3 mg, corresponding to 15 mg/kg), aspirin (0.3 mg, corresponding to 15 mg/kg), or control vehicle (PBS) was orally administered.
# COX1 = COX1 (Homo sapiens, UniProt P23219); conditions: no test described; cited from earlier work
# COX2 = biological target: T1, COX2 (Homo sapiens, UniProt P35354); conditions: no test described; cited from earlier work
# T1 sequence (P35354 18-604): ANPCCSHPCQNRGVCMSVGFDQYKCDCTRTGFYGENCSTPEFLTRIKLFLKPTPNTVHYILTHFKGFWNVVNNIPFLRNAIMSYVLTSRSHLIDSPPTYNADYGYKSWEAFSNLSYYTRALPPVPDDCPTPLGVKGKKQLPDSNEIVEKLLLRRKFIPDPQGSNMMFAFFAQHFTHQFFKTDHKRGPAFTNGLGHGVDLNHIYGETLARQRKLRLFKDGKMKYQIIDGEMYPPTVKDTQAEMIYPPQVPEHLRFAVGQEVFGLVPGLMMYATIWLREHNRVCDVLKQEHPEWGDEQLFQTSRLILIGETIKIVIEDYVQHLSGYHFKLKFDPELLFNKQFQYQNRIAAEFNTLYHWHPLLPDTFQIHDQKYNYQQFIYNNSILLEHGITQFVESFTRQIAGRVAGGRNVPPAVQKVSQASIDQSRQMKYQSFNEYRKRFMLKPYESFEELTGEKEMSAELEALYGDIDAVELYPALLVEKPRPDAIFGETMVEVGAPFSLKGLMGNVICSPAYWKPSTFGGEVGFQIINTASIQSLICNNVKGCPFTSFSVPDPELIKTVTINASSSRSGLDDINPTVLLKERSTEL
# [4] = system: C26 tumor cell-induced cytokine storm; test: Tumor-induced cytokine storm model, serum cytokines (Mouse-Cytokine-32-Plex assay); conditions: gavage 0.2 mg daily for six days, serum on day 7, compared to PBS controls
# Experimental: Cytokine storm inducing C26 tumor cells were cultured in Advanced RPMI 1640 medium supplied with 5% fetal bovine serum and 1% penicillin/streptomycin and maintained in a 5% CO2, 37° C. humidified incubator. Tumor cells with viability of >90% were chosen for the study. Viable tumor cells (1 × 10^6 cells) were re-suspended in 100 µL of PBS and subcutaneously injected into the left flank of mice. All procedures were performed in laminar flow hood following sterile techniques.
# 6-8 week BALB/c male and female mice were used for these studies. Following tumor inoculation, the animals were returned to the cage. The mice were monitored for the appearance of palpable tumor and cytokine storm development by observing health condition change and testing serum cytokines with Mouse-Cytokine-32-Plex assay.
# 2-4 mice were included in each experimental group. On day 7, mouse blood samples were collected and allowed to clot for one hour at room temperature. The samples were then centrifuged for 15 min at 3,000 rpm (1500 × g) at 4° C. Thirty microliters of serum per treatment animal were assessed for cytokine profiles using a Mouse-Cytokine-32-Plex assay (Eve Technologies Corporation, Calgary, AB, Canada).
# Sequence of COX1 (P23219 24-599): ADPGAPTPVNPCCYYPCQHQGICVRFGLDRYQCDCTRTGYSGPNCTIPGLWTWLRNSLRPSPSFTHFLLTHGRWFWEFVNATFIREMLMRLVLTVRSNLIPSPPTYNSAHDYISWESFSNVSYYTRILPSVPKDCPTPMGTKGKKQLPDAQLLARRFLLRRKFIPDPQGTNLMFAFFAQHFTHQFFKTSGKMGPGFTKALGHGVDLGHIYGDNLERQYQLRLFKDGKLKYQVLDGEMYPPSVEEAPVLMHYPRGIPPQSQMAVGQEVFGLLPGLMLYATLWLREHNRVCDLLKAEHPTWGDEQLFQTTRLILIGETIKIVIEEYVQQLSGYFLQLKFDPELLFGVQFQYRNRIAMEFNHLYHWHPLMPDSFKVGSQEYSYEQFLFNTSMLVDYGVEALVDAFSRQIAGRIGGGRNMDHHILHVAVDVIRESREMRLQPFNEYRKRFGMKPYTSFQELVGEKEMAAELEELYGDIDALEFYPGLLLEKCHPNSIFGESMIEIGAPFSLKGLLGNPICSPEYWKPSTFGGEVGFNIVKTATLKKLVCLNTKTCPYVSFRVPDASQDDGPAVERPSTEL
compound,measurement,setting,value
O=C(c1ccccc1)c1ccc2n1CCC2C(=O)O (racemic) [ketorolac],serum IL-6 levels,IL-6,decreased serum IL-6 levels
same,decrease of acute diarrhea occurrence,"LPS-induced CRS [1]; 0.1 mg (5 mg/kg) i.p., versus control",65%
same,"diarrhea present, % of mice","LPS-induced CRS [1]; 0.1 mg (5 mg/kg) single i.p. injection, watery stools 6 hours after treatment, n=8, control 87.5%",12.5%
O=C(c1ccccc1)c1ccc2n1CC[C@H]2C(=O)O [(R)-ketorolac],survival rate,"LPS-induced CRS [2]; 10 mg/kg single dose, surviving mice / n=6",⅚
same,survival rate,"LPS-induced CRS [2]; 10 mg/kg, control 33.3%",83.3%
same,increase in survival rate,"LPS-induced CRS [2]; 10 mg/kg, versus PBS control",50%
same,body weight loss,LPS-induced CRS [3],significantly reduced body weight loss
same,activity against COX1,COX1,not active
same,activity against COX2,COX2,not active
same,serum concentration of G-CSF,[4],effective in reducing
same,serum concentration of GM-CSF,[4],effective in reducing
same,serum concentration of IL-1β,[4],effective in reducing
same,serum concentration of IL-6,[4],effective in reducing
same,serum concentration of IL-7,[4],effective in reducing
same,serum concentration of IL-10,[4],effective in reducing
same,serum concentration of LIF,[4],effective in reducing
same,serum concentration of MCP-1,[4],effective in reducing
same,serum concentration of MIP-1A,[4],effective in reducing
same,serum concentration of TNF-α,[4],effective in reducing
